Data: ChEMBL document CHEMBL1201862, “PubChem BioAssay data set” (2004)
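Results reflect a 48-hour exposure of cells in 96-well plates to compound at five concentrations. GI50 = concentration required for 50% inhibition of growth.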 The source made the active and inactive calls. Rule as the data show it: active = GI50 up to about 1.1 µM and inactive = higher.

Columns and labels:
Experiment in all cases: inhibition of tumour cell growth, NCI panel, 48 h
NCI-H522 = test system: NCI-H522
SR = test system: SR
CCRF-CEM = test system: CCRF-CEM
COLO 205 = test system: COLO 205
NCI-H226 = test system: NCI-H226
RXF 393 = test system: RXF 393
SK-OV-3 = test system: SK-OV-3
ACHN = test system: ACHN
OVCAR-4 = test system: OVCAR-4
IGROV-1 = test system: IGROV-1
OVCAR-8 = test system: OVCAR-8
A498 = test system: A498
KM12 = test system: KM12
MCF7 = test system: MCF7
SW-620 = test system: SW-620
HOP-92 = test system: HOP-92
PC-3 = test system: PC-3
RPMI-8226 = test system: RPMI-8226
NCI-H23 = test system: NCI-H23
U-251 = test system: U-251

| Compound | GI50 (NCI-H522) | GI50 (SR) | GI50 (CCRF-CEM) | GI50 (COLO 205) | GI50 (NCI-H226) | GI50 (RXF 393) | GI50 (SK-OV-3) | GI50 (ACHN) | GI50 (OVCAR-4) | GI50 (IGROV-1) | GI50 (OVCAR-8) | GI50 (A498) | GI50 (KM12) | GI50 (MCF7) | GI50 (SW-620) | GI50 (HOP-92) | GI50 (PC-3) | GI50 (RPMI-8226) | GI50 (NCI-H23) | GI50 (U-251) |
| --- | --- | --- | --- | --- | --- | --- | --- | --- | --- | --- | --- | --- | --- | --- | --- | --- | --- | --- | --- | --- |
| CCC(=O)Nc1ccc(/N=C/c2cccc(Oc3ccccc3)c2)cc1 | > 100 µM (inactive) | 16.2 µM (inactive) | 12.6 µM (inactive) | 44.6 µM (inactive) | 18.2 µM (inactive) | 50.9 µM (inactive) | > 100 µM (inactive) | > 100 µM (inactive) | 55.3 µM (inactive) | 63.4 µM (inactive) | 22.3 µM (inactive) | > 100 µM (inactive) | > 100 µM (inactive) | 44.1 µM (inactive) | 37 µM (inactive) | 85.3 µM (inactive) | 64.4 µM (inactive) | 21.8 µM (inactive) | > 100 µM (inactive) |  |
| O=C(CCl)Nc1ccc(-c2nc3ccccc3s2)cc1 | 1.77 µM (inactive) | 1.46 µM (inactive) | 0.94 µM (active) | 2.07 µM (inactive) | 1.43 µM (inactive) | 3.43 µM (inactive) | 4.78 µM (inactive) | 5.28 µM (inactive) | 3.37 µM (inactive) | 1.34 µM (inactive) | 2.59 µM (inactive) | 6.82 µM (inactive) | 3.3 µM (inactive) | 0.184 µM (active) | 2.21 µM (inactive) | 2.36 µM (inactive) | 2.56 µM (inactive) | 2.26 µM (inactive) | 2.96 µM (inactive) | 1.64 µM (inactive) |
| COc1cc(C2S/C(=C/c3ccccc3)C(=O)N2c2ccccn2)cc(OC)c1OC (configuration not stated) | 7.18 µM (inactive) | 3.02 µM (inactive) | 3.57 µM (inactive) | 29 µM (inactive) | 45.9 µM (inactive) | 10 µM (inactive) | 28.2 µM (inactive) | 10.5 µM (inactive) | 19.2 µM (inactive) | 11 µM (inactive) | 9.2 µM (inactive) | 13.2 µM (inactive) | 12.9 µM (inactive) | 11.7 µM (inactive) | 15.3 µM (inactive) | 8.3 µM (inactive) | 22.4 µM (inactive) | 7.53 µM (inactive) | 13.7 µM (inactive) | 10.2 µM (inactive) |
| CCOC(=O)COc1ccc(/C=C/C(=O)c2ccc(OC)cc2)cc1 | 22.3 µM (inactive) | 23.2 µM (inactive) | 20.9 µM (inactive) | 35.4 µM (inactive) |  | 18.1 µM (inactive) |  | 33 µM (inactive) |  | 45.2 µM (inactive) | 24.5 µM (inactive) | 29.6 µM (inactive) | 28.4 µM (inactive) | 30.7 µM (inactive) | 20.7 µM (inactive) | 16.6 µM (inactive) | 22.9 µM (inactive) | 39.3 µM (inactive) | 25.8 µM (inactive) | 14.3 µM (inactive) |
| CC(=O)O[C@H]1CC[C@@]2(C)C(=CC[C@@H]3[C@@H]2CC[C@]2(C)c4c(cc(C#N)c(=N)n4C(C)=O)C[C@@H]32)C1 | 17.9 µM (inactive) | 23.8 µM (inactive) | 3.6 µM (inactive) | 16.1 µM (inactive) | 27.4 µM (inactive) | 22.6 µM (inactive) | 6.7 µM (inactive) | 20.1 µM (inactive) | 18.7 µM (inactive) | 22.2 µM (inactive) | 16.7 µM (inactive) | 30.5 µM (inactive) | 17.9 µM (inactive) | 22.3 µM (inactive) | 19.4 µM (inactive) | 14.7 µM (inactive) | 21.5 µM (inactive) |  | 15.3 µM (inactive) | 29 µM (inactive) |
| N#Cc1nc(-c2cccs2)oc1N | 18.5 µM (inactive) | > 100 µM (inactive) | 70.6 µM (inactive) | > 100 µM (inactive) | > 100 µM (inactive) | > 100 µM (inactive) | > 100 µM (inactive) | > 100 µM (inactive) | > 100 µM (inactive) | > 100 µM (inactive) | > 100 µM (inactive) | > 100 µM (inactive) | > 100 µM (inactive) | 83.2 µM (inactive) | > 100 µM (inactive) | 90.2 µM (inactive) | > 100 µM (inactive) | > 100 µM (inactive) | > 100 µM (inactive) | > 100 µM (inactive) |
| CC(C)=CCC[C@@H](C)C1=C(O)C(=O)C(C)=C(Nc2ccccc2Br)C1=O |  | 9.66 µM (inactive) | 3.84 µM (inactive) | 15.9 µM (inactive) | 14.7 µM (inactive) | 14.3 µM (inactive) | 17.5 µM (inactive) | 15.6 µM (inactive) | 6.52 µM (inactive) | 8.69 µM (inactive) | 7.57 µM (inactive) | 7.19 µM (inactive) | 12.5 µM (inactive) | 18.2 µM (inactive) | 17.3 µM (inactive) | 11.6 µM (inactive) | 8.51 µM (inactive) | 8.24 µM (inactive) | 9.71 µM (inactive) | 8.91 µM (inactive) |
| O=C1NC2=NN=C(c3ccc(Br)cc3)CN2NC12c1ccccc1-c1ccccc12 | > 100 µM (inactive) | 69.2 µM (inactive) | 3.05 µM (inactive) | > 100 µM (inactive) | > 100 µM (inactive) | > 100 µM (inactive) | > 100 µM (inactive) | > 100 µM (inactive) | > 100 µM (inactive) | > 100 µM (inactive) | > 100 µM (inactive) | > 100 µM (inactive) |  | 73.3 µM (inactive) | > 100 µM (inactive) | > 100 µM (inactive) | > 100 µM (inactive) |  | > 100 µM (inactive) | > 100 µM (inactive) |
| Cc1cc(S(=O)(=O)Nc2nc3ccccc3[nH]2)c(S)cc1Cl | 97.3 µM (inactive) | 38.2 µM (inactive) | 26.6 µM (inactive) | 82.2 µM (inactive) |  | > 100 µM (inactive) | > 100 µM (inactive) | 71.9 µM (inactive) | 61.4 µM (inactive) | 61.5 µM (inactive) | > 100 µM (inactive) | > 100 µM (inactive) | 37.5 µM (inactive) | 71 µM (inactive) | 37.6 µM (inactive) | 62.5 µM (inactive) | 46.6 µM (inactive) | 34.6 µM (inactive) | 67.9 µM (inactive) | 24.1 µM (inactive) |
| COc1ccc(/C=C2\N=C(c3ccccc3)N(C3Nc4cc5c(cc4S3)NC(N3C(=O)/C(=C/c4ccc(OC)cc4)N=C3c3ccccc3)S5)C2=O)cc1 (configuration not stated) | 18.1 µM (inactive) | 9.68 µM (inactive) |  |  | 60.1 µM (inactive) | > 100 µM (inactive) |  | 90.4 µM (inactive) | 38.3 µM (inactive) | > 100 µM (inactive) | 27.1 µM (inactive) | 40.4 µM (inactive) | 54.6 µM (inactive) | 43.6 µM (inactive) | 61.5 µM (inactive) | > 100 µM (inactive) | 83.6 µM (inactive) | 29.5 µM (inactive) | 42.9 µM (inactive) | 22.9 µM (inactive) |
| NCCN1C(=O)c2cc(Cl)c(Cl)cc2C1(O)c1ccc(Cl)cc1 (configuration not stated) |  | 2.02 µM (inactive) | 3.61 µM (inactive) | 1.65 µM (inactive) |  | 1.59 µM (inactive) | 13.5 µM (inactive) | 2.19 µM (inactive) | 1.76 µM (inactive) | 2.07 µM (inactive) | 2.03 µM (inactive) | 2.92 µM (inactive) | 2.32 µM (inactive) | 1.83 µM (inactive) | 1.9 µM (inactive) | 2.91 µM (inactive) | 4.98 µM (inactive) | 2.44 µM (inactive) | 2.69 µM (inactive) | 1.74 µM (inactive) |
| N#Cc1c(-c2nc3ccccc3s2)c(=O)oc2cc(O)ccc12 | 13.2 µM (inactive) | 37.3 µM (inactive) | 25.4 µM (inactive) | 13.3 µM (inactive) | 41 µM (inactive) | 43.6 µM (inactive) |  | 25 µM (inactive) | 23.1 µM (inactive) | 15.3 µM (inactive) | 32.1 µM (inactive) | 23 µM (inactive) | 22.3 µM (inactive) | 34.5 µM (inactive) | 30.8 µM (inactive) | 3.52 µM (inactive) | 34.4 µM (inactive) | 13.1 µM (inactive) | 24.8 µM (inactive) | 18 µM (inactive) |
| COc1cc2ccc1OCc1cccc(n1)COc1ccc(cc1OC)/C=N\CCNCCNCC/N=C\2 | > 100 µM (inactive) | > 100 µM (inactive) | > 100 µM (inactive) | > 100 µM (inactive) | > 100 µM (inactive) | > 100 µM (inactive) | > 100 µM (inactive) | > 100 µM (inactive) | > 100 µM (inactive) | > 100 µM (inactive) | > 100 µM (inactive) | > 100 µM (inactive) | > 100 µM (inactive) | 49 µM (inactive) | > 100 µM (inactive) | > 100 µM (inactive) | > 100 µM (inactive) |  | > 100 µM (inactive) | > 100 µM (inactive) |
| NC(CC1=CS(=O)(=O)c2ccc(Cl)cc21)C(=O)O (configuration not stated) | > 100 µM (inactive) | > 100 µM (inactive) |  | > 100 µM (inactive) | > 100 µM (inactive) | > 100 µM (inactive) | > 100 µM (inactive) | > 100 µM (inactive) | > 100 µM (inactive) | > 100 µM (inactive) | > 100 µM (inactive) | > 100 µM (inactive) | > 100 µM (inactive) | 92.3 µM (inactive) | > 100 µM (inactive) | > 100 µM (inactive) | > 100 µM (inactive) | > 100 µM (inactive) | > 100 µM (inactive) | > 100 µM (inactive) |
| COC(=O)C1CCC(=S)N1C(=O)OCc1ccccc1 (configuration not stated) | 86.7 µM (inactive) | > 100 µM (inactive) | 3.61 µM (inactive) | > 100 µM (inactive) |  | 28.4 µM (inactive) | > 100 µM (inactive) | > 100 µM (inactive) | > 100 µM (inactive) | > 100 µM (inactive) | > 100 µM (inactive) | > 100 µM (inactive) | > 100 µM (inactive) | 88.3 µM (inactive) | 83.2 µM (inactive) | > 100 µM (inactive) | > 100 µM (inactive) | > 100 µM (inactive) | > 100 µM (inactive) | 81.8 µM (inactive) |
